Reference: ChEMBL document CHEMBL1909046, “DrugMatrix in vitro pharmacology data”

What was measured:
Estrogen receptor = target: T1, Estrogen receptor (Homo sapiens, UniProt P03372); conditions: sf9; also: in other assays of this panel Not Active means under 50% inhibition at 10 µM
T1 sequence (P03372 whole entry): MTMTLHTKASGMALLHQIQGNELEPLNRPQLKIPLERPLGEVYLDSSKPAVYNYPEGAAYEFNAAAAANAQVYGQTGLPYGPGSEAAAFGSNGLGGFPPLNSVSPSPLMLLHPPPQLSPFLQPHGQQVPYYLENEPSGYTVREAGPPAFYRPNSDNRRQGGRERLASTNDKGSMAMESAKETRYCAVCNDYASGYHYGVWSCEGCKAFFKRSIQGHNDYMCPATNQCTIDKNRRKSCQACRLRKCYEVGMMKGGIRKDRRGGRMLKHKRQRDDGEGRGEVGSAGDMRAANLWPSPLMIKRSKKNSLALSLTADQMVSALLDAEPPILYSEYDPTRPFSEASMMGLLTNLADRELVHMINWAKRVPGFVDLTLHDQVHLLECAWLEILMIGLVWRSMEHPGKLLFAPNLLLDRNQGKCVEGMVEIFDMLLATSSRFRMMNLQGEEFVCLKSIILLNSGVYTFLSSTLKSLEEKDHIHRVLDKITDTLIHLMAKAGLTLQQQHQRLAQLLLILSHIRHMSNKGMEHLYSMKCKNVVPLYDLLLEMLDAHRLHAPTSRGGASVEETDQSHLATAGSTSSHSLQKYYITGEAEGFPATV

Insulin receptor = Insulin receptor (Rattus norvegicus, UniProt P15127); type: cell membranes, Wistar, Liver, Membrane; also: in other assays of this panel Not Active means under 50% inhibition at 10 µM
[1] = DRUGMATRIX: Purinergic P2X radioligand binding (ligand: [3H] alpha, beta-Methylene-ATP); type: cell membranes, Oryctolagus cuniculus, New Zealand albino, Urinary bladder, Membrane; conditions: Not Active = under 50% inhibition at 10 µM
[2] = target: T2, Vasoactive intestinal polypeptide receptor 1 (Homo sapiens, UniProt P32241); type: cell membranes, Membrane; conditions: ht-29; also: in other assays of this panel Not Active means under 50% inhibition at 10 µM
T2 sequence (P32241 whole entry): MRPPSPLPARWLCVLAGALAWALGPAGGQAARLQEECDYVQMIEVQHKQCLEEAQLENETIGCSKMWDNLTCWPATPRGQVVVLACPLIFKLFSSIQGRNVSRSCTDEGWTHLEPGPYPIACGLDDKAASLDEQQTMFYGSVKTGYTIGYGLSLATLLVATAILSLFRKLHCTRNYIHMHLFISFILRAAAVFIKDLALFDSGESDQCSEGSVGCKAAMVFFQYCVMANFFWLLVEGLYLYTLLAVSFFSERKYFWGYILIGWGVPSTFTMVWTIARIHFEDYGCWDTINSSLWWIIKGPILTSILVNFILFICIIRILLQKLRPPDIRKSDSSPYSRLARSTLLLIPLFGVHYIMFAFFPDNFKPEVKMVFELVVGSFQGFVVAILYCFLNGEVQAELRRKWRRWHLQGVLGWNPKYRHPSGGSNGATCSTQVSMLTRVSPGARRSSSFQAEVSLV

[3] = target: T3, Receptor-type tyrosine-protein phosphatase C (Homo sapiens, UniProt P08575); parameters: species or system Escherichia coli;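 also: inhibition of CD45 enzyme activity measured using DiFMUP as substrate; in other assays of this panel Not Active means under 50% inhibition at 10 µM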
T3 sequence (P08575 whole entry): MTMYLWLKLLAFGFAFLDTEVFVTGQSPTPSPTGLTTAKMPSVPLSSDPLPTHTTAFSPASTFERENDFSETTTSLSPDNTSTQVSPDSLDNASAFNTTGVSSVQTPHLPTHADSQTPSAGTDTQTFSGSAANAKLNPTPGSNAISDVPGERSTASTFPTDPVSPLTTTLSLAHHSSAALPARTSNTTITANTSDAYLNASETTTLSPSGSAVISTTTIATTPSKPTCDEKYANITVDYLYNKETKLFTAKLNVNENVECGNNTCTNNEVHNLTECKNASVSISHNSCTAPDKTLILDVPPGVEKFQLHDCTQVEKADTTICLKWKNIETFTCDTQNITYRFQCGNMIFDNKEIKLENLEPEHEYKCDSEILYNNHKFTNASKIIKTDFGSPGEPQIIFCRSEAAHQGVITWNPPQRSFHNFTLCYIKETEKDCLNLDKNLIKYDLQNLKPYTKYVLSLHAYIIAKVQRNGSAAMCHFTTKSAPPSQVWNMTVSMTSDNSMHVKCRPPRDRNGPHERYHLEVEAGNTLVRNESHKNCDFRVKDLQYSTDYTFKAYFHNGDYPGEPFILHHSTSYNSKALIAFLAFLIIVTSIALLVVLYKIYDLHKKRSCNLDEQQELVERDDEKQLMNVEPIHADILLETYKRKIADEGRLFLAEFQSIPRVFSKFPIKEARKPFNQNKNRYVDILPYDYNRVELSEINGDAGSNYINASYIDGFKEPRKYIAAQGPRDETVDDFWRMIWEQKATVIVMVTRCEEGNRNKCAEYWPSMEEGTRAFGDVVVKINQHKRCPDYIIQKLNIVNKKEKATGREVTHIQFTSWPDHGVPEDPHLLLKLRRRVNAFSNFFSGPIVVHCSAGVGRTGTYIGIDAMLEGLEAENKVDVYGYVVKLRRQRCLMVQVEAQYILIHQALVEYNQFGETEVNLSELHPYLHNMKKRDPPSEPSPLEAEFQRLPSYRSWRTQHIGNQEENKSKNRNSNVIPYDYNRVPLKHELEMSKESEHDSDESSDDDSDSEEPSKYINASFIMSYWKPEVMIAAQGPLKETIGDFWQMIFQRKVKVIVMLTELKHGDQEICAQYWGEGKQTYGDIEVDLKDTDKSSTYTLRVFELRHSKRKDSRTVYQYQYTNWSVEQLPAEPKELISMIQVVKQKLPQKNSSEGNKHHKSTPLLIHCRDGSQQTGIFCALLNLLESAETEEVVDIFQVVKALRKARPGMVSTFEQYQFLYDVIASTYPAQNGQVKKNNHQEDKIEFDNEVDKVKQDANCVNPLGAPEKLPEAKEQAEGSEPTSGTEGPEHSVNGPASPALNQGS

[4] = target: T4, C-C chemokine receptor type 4 (Homo sapiens, UniProt P51679); type: cell membranes, Membrane; conditions: chem-1; also: in other assays of this panel Not Active means under 50% inhibition at 10 µM
T4 sequence (P51679 whole entry): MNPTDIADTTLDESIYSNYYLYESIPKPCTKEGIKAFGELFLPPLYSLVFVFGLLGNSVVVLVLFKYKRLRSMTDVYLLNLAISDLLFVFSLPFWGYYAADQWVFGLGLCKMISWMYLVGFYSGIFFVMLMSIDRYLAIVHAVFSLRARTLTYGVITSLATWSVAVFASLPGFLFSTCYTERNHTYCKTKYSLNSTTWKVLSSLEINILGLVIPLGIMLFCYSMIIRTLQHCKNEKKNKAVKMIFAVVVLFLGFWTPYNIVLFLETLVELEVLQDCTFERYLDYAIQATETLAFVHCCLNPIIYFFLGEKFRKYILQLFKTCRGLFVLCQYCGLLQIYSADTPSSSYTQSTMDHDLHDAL

[5] = DRUGMATRIX: Nicotinic Acetylcholine radioligand binding (ligand: [125I] Epibatidine); type: cell membranes, Membrane; conditions: imr-32; Not Active = under 50% inhibition at 10 µM

Sequence of Insulin receptor (P15127 27-759 limits assumed): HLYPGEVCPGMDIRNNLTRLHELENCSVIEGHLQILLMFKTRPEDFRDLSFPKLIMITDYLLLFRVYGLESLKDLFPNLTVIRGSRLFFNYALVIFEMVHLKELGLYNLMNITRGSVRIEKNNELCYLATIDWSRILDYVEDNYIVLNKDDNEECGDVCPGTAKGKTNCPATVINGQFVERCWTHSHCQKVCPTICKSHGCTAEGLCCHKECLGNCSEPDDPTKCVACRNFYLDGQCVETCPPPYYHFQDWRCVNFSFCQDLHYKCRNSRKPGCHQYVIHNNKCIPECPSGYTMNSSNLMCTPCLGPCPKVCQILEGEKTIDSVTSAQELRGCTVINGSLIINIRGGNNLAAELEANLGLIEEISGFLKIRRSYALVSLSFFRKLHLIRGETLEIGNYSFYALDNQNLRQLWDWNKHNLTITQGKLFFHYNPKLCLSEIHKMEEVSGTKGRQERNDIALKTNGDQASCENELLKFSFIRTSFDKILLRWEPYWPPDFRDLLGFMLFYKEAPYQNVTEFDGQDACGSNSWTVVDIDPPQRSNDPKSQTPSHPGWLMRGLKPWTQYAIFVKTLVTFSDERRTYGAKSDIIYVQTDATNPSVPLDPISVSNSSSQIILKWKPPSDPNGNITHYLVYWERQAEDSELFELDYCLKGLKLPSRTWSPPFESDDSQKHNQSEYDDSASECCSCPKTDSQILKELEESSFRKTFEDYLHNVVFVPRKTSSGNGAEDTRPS
Sequence of Insulin receptor (P15127 764-1383 limits assumed): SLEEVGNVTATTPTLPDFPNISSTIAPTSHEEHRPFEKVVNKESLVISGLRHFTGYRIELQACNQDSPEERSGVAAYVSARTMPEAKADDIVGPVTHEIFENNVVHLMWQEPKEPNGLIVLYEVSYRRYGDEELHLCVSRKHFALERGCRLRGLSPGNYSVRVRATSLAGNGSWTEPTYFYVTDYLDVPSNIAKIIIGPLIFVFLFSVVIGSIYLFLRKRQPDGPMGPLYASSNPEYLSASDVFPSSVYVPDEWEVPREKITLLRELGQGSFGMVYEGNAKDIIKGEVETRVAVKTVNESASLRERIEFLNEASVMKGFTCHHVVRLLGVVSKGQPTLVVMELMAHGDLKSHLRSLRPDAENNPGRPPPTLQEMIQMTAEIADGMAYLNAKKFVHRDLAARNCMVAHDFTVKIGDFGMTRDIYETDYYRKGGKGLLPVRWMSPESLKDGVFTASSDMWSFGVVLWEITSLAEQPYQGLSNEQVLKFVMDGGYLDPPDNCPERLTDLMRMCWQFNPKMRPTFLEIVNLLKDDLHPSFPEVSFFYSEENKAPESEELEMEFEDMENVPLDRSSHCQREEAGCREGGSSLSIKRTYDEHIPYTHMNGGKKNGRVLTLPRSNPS

CC(C)NNC(=O)c1ccncc1 [IPRONIAZID]
Not Active: IC50 (Estrogen receptor) | IC50 (Insulin receptor) | IC50 [1] | Ki [1] | IC50 [2] | IC50 [3] | IC50 [4] | IC50 [5] | Ki [5]

COc1ccc2c3c1O[C@H]1C[C@@H](O)C=C[C@@]31CCN(C)C2 [GALANTAMINE]
Not Active: IC50 (Estrogen receptor) | IC50 (Insulin receptor) | IC50 [1] | Ki [1] | IC50 [2] | IC50 [3] | IC50 [4] | IC50 [5] | Ki [5]

O=C(O)CCNC(=O)c1ccccc1 [BETAMIPRON]
Not Active: IC50 (Estrogen receptor) | IC50 (Insulin receptor) | IC50 [1] | Ki [1] | IC50 [2] | IC50 [3] | IC50 [4] | IC50 [5] | Ki [5]

C#C[C@]1(OC(C)=O)CC[C@H]2[C@@H]3CCC4=C[C@@H](OC(C)=O)CC[C@@H]4[C@H]3CC[C@@]21C [ETHYNODIOL DIACETATE]
Not Active: IC50 (Estrogen receptor) | IC50 (Insulin receptor) | IC50 [1] | Ki [1] | IC50 [2] | IC50 [3] | IC50 [4] | IC50 [5] | Ki [5]

Oc1cccc(O)c1O [PYROGALLOL]
Not Active: IC50 (Estrogen receptor) | IC50 (Insulin receptor) | IC50 [1] | Ki [1] | IC50 [2] | IC50 [3] | IC50 [4] | IC50 [5] | Ki [5]

O=C/C=C/c1ccccc1
Not Active: IC50 (Estrogen receptor) | IC50 (Insulin receptor) | IC50 [1] | Ki [1] | IC50 [2] | IC50 [3] | IC50 [4] | IC50 [5] | Ki [5]

CN/C(=N\CCSCc1nc[nH]c1C)NC#N [CIMETIDINE]
Not Active: IC50 (Estrogen receptor) | IC50 (Insulin receptor) | IC50 [1] | Ki [1] | IC50 [2] | IC50 [3] | IC50 [4] | IC50 [5] | Ki [5]

C[n+]1ccc(-c2cc[n+](C)cc2)cc1.[Cl-].[Cl-] [PARAQUAT DICHLORIDE]
Not Active: IC50 (Estrogen receptor) | IC50 (Insulin receptor) | IC50 [1] | Ki [1] | IC50 [2] | IC50 [3] | IC50 [4] | IC50 [5] | Ki [5]

C#CC1(O)CC[C@H]2[C@@H]3CCC4=CC(=O)CC[C@@H]4[C@H]3CC[C@@]21CC (stereo partly specified) [NORGESTREL]
Not Active: IC50 (Estrogen receptor) | IC50 (Insulin receptor) | IC50 [1] | Ki [1] | IC50 [2] | IC50 [3] | IC50 [4] | IC50 [5] | Ki [5]
